Assay results taken from ChEMBL document CHEMBL1133082, “Adenosine kinase inhibitors. 2. Synthesis, enzyme inhibition, and antiseizure activity of diaryltubercidin analogues” (J Med Chem, 2000).

Columns and labels:
Adenosine kinase = Adenosine kinase (Homo sapiens, UniProt P55263); assay: Inhibition of recombinant human adenosine kinase
Rattus norvegicus [1] = assay: Tested for inhibition of MES-induced seizures in rat after ip administration of 5 mg/kg; type: functional; conditions: route intraperitoneal
Rattus norvegicus [2] = assay: Intraperitoneal effective dose required for inhibition of MES-induced seizures in rat; type: functional; conditions: ip

Adenosine kinase, sequence (P55263 whole entry): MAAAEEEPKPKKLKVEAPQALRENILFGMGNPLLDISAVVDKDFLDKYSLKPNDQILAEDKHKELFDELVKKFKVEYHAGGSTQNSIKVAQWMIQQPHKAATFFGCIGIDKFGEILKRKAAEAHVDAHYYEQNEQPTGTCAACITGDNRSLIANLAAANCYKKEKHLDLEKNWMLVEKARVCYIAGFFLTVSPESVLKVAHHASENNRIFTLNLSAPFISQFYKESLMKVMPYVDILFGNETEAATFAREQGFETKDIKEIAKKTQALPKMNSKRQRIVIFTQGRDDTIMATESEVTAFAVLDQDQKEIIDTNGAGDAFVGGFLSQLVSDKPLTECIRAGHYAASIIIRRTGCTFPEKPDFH

| IC50 (Adenosine kinase) [nM] | SMILES | inhibition in vivo at 5 mg/kg (Rattus norvegicus [1]) [%] | ED50 (Rattus norvegicus [2]) [mg/kg] |
| --- | --- | --- | --- |
| 30 | C[C@H]1O[C@@H](n2cc(-c3ccccc3)c3c(NCc4ccccc4)ncnc32)[C@H](O)[C@@H]1O |  |  |
| 800 | C[C@H]1O[C@@H](n2cc(I)c3c(NCc4ccccc4)ncnc32)[C@H](O)[C@@H]1O |  |  |
| 14 | C[C@H]1O[C@@H](n2cc(-c3ccccc3)c3c(Nc4ccc(C#N)cc4)ncnc32)[C@H](O)[C@@H]1O | 87 |  |
| 300 | OC[C@H]1O[C@@H](n2cc(-c3ccccc3)c3c(Nc4ccccc4)ncnc32)C[C@@H]1O |  |  |
|  | C[C@H]1O[C@@H](n2cc(-c3ccccc3)c3c(Nc4ccc(F)cc4)ncnc32)[C@H](O)[C@@H]1O | 73 |  |
| 1250 | OC[C@H]1O[C@@H](n2ccc3c(Nc4ccccc4)ncnc32)[C@H](O)[C@@H]1O |  |  |
| 1 | C[C@H]1O[C@@H](n2cc(-c3ccccc3)c3c(Nc4ccc(O)cc4)ncnc32)[C@H](O)[C@@H]1O | 35 | 5.8 |
| 6 | COc1ccc(Nc2ncnc3c2c(-c2ccccc2)cn3[C@@H]2O[C@H](C)[C@@H](O)[C@H]2O)cc1 | 93 | 1 |
